Assay results as given in the supplement of paper PMC10307832.

Experiments:
Experiment in all cases: relative viability (nuclei count vs DMSO), 5 days (fraction); higher = more cells survive
[1] = compound: Cn1nnc2c(C(N)=O)ncn2c1=O [Temozolomide] + C[C@@H](Oc1cc(-c2cnn(C3CCNCC3)c2)cnc1N)c1c(Cl)ccc(F)c1Cl [Crizotinib] (partner 1 µM)
Summary of the method: (§1)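 One day after seeding in 1536-well plates, lung cancer cell lines were dosed by pin tool. Dosing was either single-drug or a fixed anchor-drug dose plus five library-drug doses (not always all listed) in √10 steps. After 5 days, nuclei were stained in one fix-and-stain step and counted on 4× images, and relative viability is the nuclei count of treated wells over that of vehicle wells, given as the median of duplicate plates.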

Temozolomide + Olaparib = compound: Cn1nnc2c(C(N)=O)ncn2c1=O [Temozolomide] + O=C(c1cc(Cc2n[nH]c(=O)c3ccccc23)ccc1F)N1CCN(C(=O)C2CC2)CC1 [Olaparib] (partner 8 µM)
Summary of the method: as §1

[2] = compound: Cn1nnc2c(C(N)=O)ncn2c1=O [Temozolomide] + CC(C)C[C@H](NC(=O)[C@H](Cc1ccccc1)NC(=O)c1cnccn1)B(O)O [Bortezomib] (partner 0.002 µM)
Summary of the method: as §1

AZD5582 + Alpelisib = compound: C[C@@H](C(=O)N[C@@H](C1CCCCC1)C(=O)N2CCC[C@H]2C(=O)N[C@@H]3[C@@H](CC4=CC=CC=C34)OCC#CC#CCO[C@@H]5CC6=CC=CC=C6[C@@H]5NC(=O)[C@@H]7CCCN7C(=O)[C@H](C8CCCCC8)NC(=O)[C@H](C)NC)NC [AZD5582] + Cc1nc(NC(=O)N2CCC[C@H]2C(N)=O)sc1-c1ccnc(C(C)(C)C(F)(F)F)c1 [Alpelisib] (partner 2 µM)
Summary of the method: as §1

## NCI-H1703
[1]; first compound 0.2 µM
  relative viability: 0.746
[1]; first compound 0.6325 µM
  relative viability: 0.648
[1]; first compound 2 µM
  relative viability: 0.876
[1]; first compound 6.325 µM
  relative viability: 0.8
[1]; first compound 20 µM
  relative viability: 0.846
Temozolomide + Olaparib; first compound 0.2 µM
  relative viability: 0.497
Temozolomide + Olaparib; first compound 0.6325 µM
  relative viability: 0.43
Temozolomide + Olaparib; first compound 2 µM
  relative viability: 0.469
Temozolomide + Olaparib; first compound 6.325 µM
  relative viability: 0.405
Temozolomide + Olaparib; first compound 20 µM
  relative viability: 0.448
[2]; first compound 0.2 µM
  relative viability: 0.29
[2]; first compound 0.6325 µM
  relative viability: 0.471
[2]; first compound 2 µM
  relative viability: 0.365
[2]; first compound 6.325 µM
  relative viability: 0.241
[2]; first compound 20 µM
  relative viability: 0.284
AZD5582 + Alpelisib; first compound 0.001581 µM
  relative viability: 0.208
AZD5582 + Alpelisib; first compound 0.005 µM
  relative viability: 0.323
AZD5582 + Alpelisib; first compound 0.01581 µM
  relative viability: 0.358
AZD5582 + Alpelisib; first compound 0.05 µM
  relative viability: 0.255
